Data published in patent US7838207B2, “Surrogate cell-based system and method for assaying the activity of hepatitis C virus NS3 protease” (Boehringer Ingelheim Canada Ltd., priority 1999, dated 2010).

System: tetracycline transactivator (tTA)
Assay: Tetracycline internal control: luciferase assay in 293 cells co-transfected with chimera G and pUHC13-3 reporter
Assay type: cell-based
Conditions: in the presence of tetracycline (over 2,000,000 cps in its absence)
Text: Expression of the luciferase reporter gene is controlled by NS3 processing of a tetracycline responsive transcriptional trans-activator. Luciferase assay performed on extracts of 293 cells co-transfected with construct G or H, or the positive control tTA-producing plasmid (pUHD15-1), and the pUHC13-3 plasmid containing the luciferase reporter. Closed and open bars indicate the absence and presence of tetracycline, respectively. Note that construct G produces a tetracycline controlled signal; inactivation of the NS3 protease activity (in construct H) abolishes this signal.
The three families (clones A, D, and G) of HCV-tTA chimeras, and their active site and cleavage site mutant variants, were each co-transfected with the pUHC13-3 reporter into 293 cells to determine the extent of NS3-dependent luciferase expression (FIG. 6). Cells in 35 mm wells were co-transfected with each of the constructs described in FIGS. 2A to 2I and the pUHC13-3 reporter plasmid using the calcium phosphate method. The cells were harvested 48 hours post-transfection and washed twice in phosphate buffered saline. […] An aliquot of 10 μl of supernatant was mixed with 50 μl of the luciferase assay reagent (Promega) in a 96 well plate and the amount of light produced measured using a Digene luminometer or Packard top-count scintillation counter. […]

## CN(C)[C@@H]1C(O)=C(C(N)=O)C(=O)[C@@]2(O)C(O)=C3C(=O)c4c(O)cccc4[C@@](C)(O)[C@H]3C[C@@H]12 [tetracycline]
  Luciferase activity: 40000 cps
